Measured values as given in ChEMBL document CHEMBL1212939, “Structure and relative potency of several karlotoxins from Karlodinium veneficum” (J Nat Prod, 2010).

Test: Toxicity in human erythrocytes assessed as hemolytic activity after 24 hrs
Assay type: cell-based, Erythrocyte

Row | Compound | EC50 at 24 h
1 | C=C/C=C/CCCCCCCCCC/C=C/C(O)C(O)C1OC(C(O)C(O)C(=C)CCC(O)C2OC(CC(O)C(O)C(C)CCCC(O)C(O)C(O)C(C)CCC(O)C(O)C(C)CC(O)CCCC(O)CCCC(O)/C=C/CC(O)CO)C(O)C(O)C2O)CC(O)C1O (stereo not given) | 63 nM
2 | C=C/C=C/CCCCCCCCC/C=C/C(O)C(O)C1OC(C(O)C(O)C(=C)CCC(O)C2OC(CC(O)C(O)C(C)CCCC(O)C(O)C(O)C(C)CCC(O)C(O)C(C)CC(O)CCCC(O)CCCC(O)/C=C/CC(O)CO)C(O)C(O)C2O)CC(O)C1O (stereo not given) | 200 nM
3 | C=C(CCC(O)C1OC(CC(O)C(O)C(C)CCCC(O)C(O)C(O)C(C)CCC(O)C(O)C(C)CC(O)CCCC(O)CCCC(O)/C=C/CC(O)CO)C(O)C(O)C1O)C(O)C(O)C1CC(O)C(O)C(C(O)C(O)/C=C/CCCCCCCCC/C=C/C=C/Cl)O1 (stereo not given) | 110 nM
4 | C=C(CCC(O)C1OC(CC(O)C(O)C(C)CCCC(O)C(O)C(O)C(C)CCC(O)C(O)C(C)CC(O)CCCC(O)CCCC(O)/C=C/CC(O)CO)C(O)C(O)C1O)C(O)C(O)C1CC(O)C(O)C(C(O)C(O)/C=C/CCCCCCCCCC/C=C/C=C/Cl)O1 (stereo not given) | 56 nM
5 | C=C/C=C/CCCCCCCCCC/C=C/C(O)C(O)C1OC(C(O)C(O)C(=C)CCC(O)C2OC(CC(O)C(O)C(C)CCCC(O)C(O)C(O)C(C)CCC(O)C(O)C(C)CC(O)CCCC(CCCC(O)/C=C/CC(O)CO)OS(=O)(=O)O)C(O)C(O)C2O)CC(O)C1O (stereo not given) | 300 nM
